Results reported in PubChem BioAssay (NCI).
“And” between values parts separate entries of the source, which are not always exact repeats. Equal values may be shown once.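 Exposure lasted 48 hours, with cells grown in 96-well plates and compounds tested at five concentrations. The concentration for 50% growth inhibition is given as GI50. The concentration for full growth arrest is given as TGI.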

Test system: HCC-2998 colon
Test: NCI anticancer screen, dose series, 48 h

| Structure (SMILES) | GI50 [µM] | TGI [µM] |
| --- | --- | --- |
| CCCC(CCC)NCC(O)c1cc(-c2ccc(C(F)(F)F)cc2)nc(C(F)(F)F)c1 (stereo not given) | 1.68 | 3.1 |
| Cc1cc(C)c(NC(=O)c2sc3nc4c(cc3c2N)C(=O)CCC4)c(C)c1 | 3.07 | > 78.2 |
| CN(C)CCNc1ccc(CO)c2oc3ccc(O)cc3c(=O)c12 | – | 27.9 |
| Cc1ccc(NC(=O)c2cccc(C(C)(C)C#N)c2)cc1Nc1ccc2ncn(C)c(=O)c2c1 | 0.0676 | > 100 |
| Cc1cc2ncnn2cc1Nc1ncc2c(n1)n(C1CCOCC1)c(=O)n2C | 6.56 | > 100 |
| COc1ccc(C(=O)c2cc(C)c(OC)c(C)c2)c(OC)c1O | 0.127 | > 27.4 |
| COCC[C@H]1CCC/C=C/[C@@H]2C[C@H](O)C[C@H]2[C@H](O)/C=C/C(=O)O1 | 0.079 | – |
| CN(Cc1ccccc1)C(=O)c1ccccc1C(=O)O | – | > 100 |
| CNC(=S)/N=C(\N)N(C)C | – | > 100 |
| CC(=O)C1Cn2c(nc3ccccc32)C[Se]1 (stereo not given) | – | 22.9 |
| Nc1ccccc1C#C/C=C\C#Cc1ccccc1N | 0.0333 | 24.4 |
| COC(=O)Nc1nc2ccc(C3(c4ccc(F)cc4)OCCO3)cc2[nH]1 | 1.99 | > 100 |
| CN(C)CCC1(C2=CCCC2)CC/C(=C\c2ccc(Cl)cc2)C1=O (stereo not given) | – | 20.2 |
| CC1=CC(C)(C)N=C2SC(c3ccc(N)cc3)=NN12 | – | > 100 |
| O=C(Nc1n[nH]c2cc(-c3ccccc3)ccc12)C1CC1 | 8.07 | > 25 |
| O=C1C2C3C=C4c5ccccc5N(c5ccccc5)C4(C2C(=O)N1c1ccc([N+](=O)[O-])cc1)[C@H]1C(=O)N(c2ccc([N+](=O)[O-])cc2)C(=O)[C@@H]31 (stereo not given in full) | – | > 100 |

Test system: COLO 205 colon
Test: NCI anticancer screen, dose series, 48 h

| Structure (SMILES) | TGI | GI50 |
| --- | --- | --- |
| CCOC(=O)/C(C)=C(/O)C(=O)OCC | > 100 µM | – |
| O=C(O)CNS(=O)(=O)c1ccc(NC(=O)c2ccc([N+](=O)[O-])cc2)cc1 | > 100 µM | – |
| CCCCNC1CCCCC[C@H]1O (stereo not given in full) | > 100 µM | – |
| N#Cc1cc(-c2cc3ccccc3o2)oc1N | 4.74 µM | 2.06 µM |
| Cc1cc(C(=O)Nc2ccc3cc(CN4CCOCC4)ccc3n2)c(C)n1-c1ccccc1 | 5.07 µM | 1.83 µM |
| [N-]=[N+]=C1C(=O)NN=C1c1ccccc1 | > 100 µM | – |
| COc1ccc2c3c([nH]c2c1[N+](=O)[O-])C(C)N(C)CC3 (stereo not given) | > 100 µM | – |
| CCOC(=O)N[C@@H]1C(CC(=O)OC)O[C@H]2OC(C)(C)O[C@H]21 (stereo not given in full) | > 100 µM | – |
| CCCCCCCCCCCCCCCC(=O)OCC(C[As](=O)(O)O)OC(=O)CCCCCCCCCCCCCCC (stereo not given) | > 100 µM | – |
| COc1cc(/C=C/c2ccc(OC)c(O)c2)cc(OC)c1 | 59.3 µM | – |
| COc1ccc(C(=O)c2cc(C)c(OC)c(C)c2)cc1OC(=O)CCl | 18.8 µM | 0.751 µM |
| O=C(Nc1ccccc1-c1nc2ccccc2[nH]c1=O)c1ccccc1 | > 100 µM | – |
| C=C(C)CCN[Si](c1ccccc1)(c1ccccc1)C(C)(C)C | 33.3 µM | – |
| CC1=[N+]([O-])c2ccccc2C(=O)C1=O | > 100 µM | – |
| NC(=O)c1cc(Cl)ccc1NC(=O)/C=C/c1ccccc1 | > 24.1 µM | 2.16 µM |
| O=C1/C(=C(/c2ccccc2)N2CCOCC2)Cc2ccccc21 | 2.94 µM | 1.34 µM |
| CC1=CC(=O)C=CC1=O | 27.3 µM and 25 µM | 13.4 µM and 12.1 µM |

| Structure (SMILES) | TGI | GI50 |
| --- | --- | --- |
| CCCC(CCC)NCC(O)c1cc(-c2ccc(C(F)(F)F)cc2)nc(C(F)(F)F)c1 (stereo not given) | 3.63 µM | 2 µM |
| Cc1cc(C)c(NC(=O)c2sc3nc4c(cc3c2N)C(=O)CCC4)c(C)c1 | > 100 µM | 3.23 µM |
| CN(C)CCNc1ccc(CO)c2oc3ccc(O)cc3c(=O)c12 | 21.6 µM | – |
| Cc1ccc(NC(=O)c2cccc(C(C)(C)C#N)c2)cc1Nc1ccc2ncn(C)c(=O)c2c1 | 92.2 µM | 0.0257 µM |
| Cc1cc2ncnn2cc1Nc1ncc2c(n1)n(C1CCOCC1)c(=O)n2C | > 100 µM | 4.93 µM |
| COc1ccc(C(=O)c2cc(C)c(OC)c(C)c2)c(OC)c1O | 28.4 µM | 7.77 µM |
| COCC[C@H]1CCC/C=C/[C@@H]2C[C@H](O)C[C@H]2[C@H](O)/C=C/C(=O)O1 | 0.0472 µM | 0.0227 µM |
| CN(Cc1ccccc1)C(=O)c1ccccc1C(=O)O | > 100 µM | – |
| CNC(=S)/N=C(\N)N(C)C | > 100 µM | – |
| CC(=O)C1Cn2c(nc3ccccc32)C[Se]1 (stereo not given) | 30.1 µM | – |
| Nc1ccccc1C#C/C=C\C#Cc1ccccc1N | > 100 µM | 31.3 µM |
| COC(=O)Nc1nc2ccc(C3(c4ccc(F)cc4)OCCO3)cc2[nH]1 | 2.88 µM | 0.297 µM |
| CN(C)CCC1(C2=CCCC2)CC/C(=C\c2ccc(Cl)cc2)C1=O (stereo not given) | 28.3 µM | – |
| CC1=CC(C)(C)N=C2SC(c3ccc(N)cc3)=NN12 | > 61.2 µM | – |
| O=C(Nc1n[nH]c2cc(-c3ccccc3)ccc12)C1CC1 | > 25 µM | 12.4 µM |
| O=C1C2C3C=C4c5ccccc5N(c5ccccc5)C4(C2C(=O)N1c1ccc([N+](=O)[O-])cc1)[C@H]1C(=O)N(c2ccc([N+](=O)[O-])cc2)C(=O)[C@@H]31 (stereo not given in full) | > 100 µM | – |

Test system: UACC-257 melanoma
Test: NCI anticancer screen, dose series, 48 h

| Structure (SMILES) | TGI [µM] | GI50 |
| --- | --- | --- |
| CCOC(=O)/C(C)=C(/O)C(=O)OCC | > 100 | – |
| O=C(O)CNS(=O)(=O)c1ccc(NC(=O)c2ccc([N+](=O)[O-])cc2)cc1 | > 100 | – |
| CCCCNC1CCCCC[C@H]1O (stereo not given in full) | > 100 | – |
| N#Cc1cc(-c2cc3ccccc3o2)oc1N | 74.1 | 3.8 µM |
| Cc1cc(C(=O)Nc2ccc3cc(CN4CCOCC4)ccc3n2)c(C)n1-c1ccccc1 | 4.07 | 1.27 µM |
| [N-]=[N+]=C1C(=O)NN=C1c1ccccc1 | > 100 | – |
| COc1ccc2c3c([nH]c2c1[N+](=O)[O-])C(C)N(C)CC3 (stereo not given) | > 100 | – |
| CCOC(=O)N[C@@H]1C(CC(=O)OC)O[C@H]2OC(C)(C)O[C@H]21 (stereo not given in full) | > 100 | – |
| CCCCCCCCCCCCCCCC(=O)OCC(C[As](=O)(O)O)OC(=O)CCCCCCCCCCCCCCC (stereo not given) | > 100 | – |
| COc1cc(/C=C/c2ccc(OC)c(O)c2)cc(OC)c1 | 24.9 | – |
| COc1ccc(C(=O)c2cc(C)c(OC)c(C)c2)cc1OC(=O)CCl | > 100 | 19 µM |
| O=C(Nc1ccccc1-c1nc2ccccc2[nH]c1=O)c1ccccc1 | > 100 | – |
| C=C(C)CCN[Si](c1ccccc1)(c1ccccc1)C(C)(C)C | 29.1 | – |
| CC1=[N+]([O-])c2ccccc2C(=O)C1=O | > 100 | – |
| NC(=O)c1cc(Cl)ccc1NC(=O)/C=C/c1ccccc1 | > 100 | > 38.8 µM |
| O=C1/C(=C(/c2ccccc2)N2CCOCC2)Cc2ccccc21 | 6.46 | 2.21 µM |
| CC1=CC(=O)C=CC1=O | 33.9 | 35.9 µM and 17.4 µM |

| Structure (SMILES) | TGI [µM] | GI50 |
| --- | --- | --- |
| CCCC(CCC)NCC(O)c1cc(-c2ccc(C(F)(F)F)cc2)nc(C(F)(F)F)c1 (stereo not given) | 3.45 | 1.8 µM |
| Cc1cc(C)c(NC(=O)c2sc3nc4c(cc3c2N)C(=O)CCC4)c(C)c1 | > 95.9 | 10 µM |
| CN(C)CCNc1ccc(CO)c2oc3ccc(O)cc3c(=O)c12 | 17.4 | – |
| Cc1ccc(NC(=O)c2cccc(C(C)(C)C#N)c2)cc1Nc1ccc2ncn(C)c(=O)c2c1 | > 100 | 0.0405 µM |
| Cc1cc2ncnn2cc1Nc1ncc2c(n1)n(C1CCOCC1)c(=O)n2C | 72.5 | 7.52 µM |
| COc1ccc(C(=O)c2cc(C)c(OC)c(C)c2)c(OC)c1O | > 100 | 32.9 µM |
| COCC[C@H]1CCC/C=C/[C@@H]2C[C@H](O)C[C@H]2[C@H](O)/C=C/C(=O)O1 | – | 0.035 µM |
| CN(Cc1ccccc1)C(=O)c1ccccc1C(=O)O | > 100 | – |
| CNC(=S)/N=C(\N)N(C)C | > 10 | – |
| CC(=O)C1Cn2c(nc3ccccc32)C[Se]1 (stereo not given) | 5.38 | – |
| Nc1ccccc1C#C/C=C\C#Cc1ccccc1N | > 100 | 41.3 µM |
| COC(=O)Nc1nc2ccc(C3(c4ccc(F)cc4)OCCO3)cc2[nH]1 | > 100 | 1.28 µM |
| CN(C)CCC1(C2=CCCC2)CC/C(=C\c2ccc(Cl)cc2)C1=O (stereo not given) | 8.62 | – |
| CC1=CC(C)(C)N=C2SC(c3ccc(N)cc3)=NN12 | > 100 | – |
| O=C(Nc1n[nH]c2cc(-c3ccccc3)ccc12)C1CC1 | > 25 | > 25 µM |
| O=C1C2C3C=C4c5ccccc5N(c5ccccc5)C4(C2C(=O)N1c1ccc([N+](=O)[O-])cc1)[C@H]1C(=O)N(c2ccc([N+](=O)[O-])cc2)C(=O)[C@@H]31 (stereo not given in full) | > 100 | – |

Test system: NCI-H460 lung
Test: NCI anticancer screen, dose series, 48 h

| Structure (SMILES) | TGI [µM] |
| --- | --- |
| CCOC(=O)/C(C)=C(/O)C(=O)OCC | > 100 |
